We go through 17 molecules from PMC7801380, “Development of phenotypic assays for identifying novel blockers of L-type calcium channels in neurons” (Scientific Reports, 2021).

For one series, the system named is LTCC currents. The series is described as follows: Patch clamp, LTCC currents in rat cortical neurons. Type of series: cell-based. (In general: The patch-clamp technique gives a direct electrical read-out from membranes.)
For series [1], the system named is L-type calcium channels (LTCCs). Kind of series: Calcium flux (FLIPR) assay, Bay K8644-induced responses in rat primary cortical cultures. The note with it: for Block of Bay K8644-evoked calcium fluorescent response: compound 3 µM. Type of series: cell-based.
The target of the next series is CaV1.2 (Homo sapiens, UniProt Q13936). Kind of series: in vitro. Conditions: pH 7.4.
Another series concerns the target Phenylalkylamine site. Kind of series: Rat cortex binding, phenylalkylamine site ([3H]D888). Conditions: [3H]D888 3 nM. As for the experimental part: (§1) The in-vitro binding studies were conducted by Eurofins (France) using rat cortex. […] The IC50 values (the concentration that causes half-maximal inhibition of control specific binding) were determined by non-linear regression analysis of the competition curves using Hill equation: Y = […] Y = specific binding, A = left asymptote of the curve, D = right asymptote of the curve, C = compound concentration, and nH = slope factor. Analyses were performed using software developed at Eurofins (Hill software) and validated by comparison with data generated by the commercial software SigmaPlot 4.0. […] KD values were determined from Scatchard plots.

The target in the next series is DHP site. The series is described as follows: Rat cortex binding, DHP site ([3H]nitrendipine). The note with it: [3H]nitrendipine 0.1 nM. As for the experimental part: as §1
The target in another series is Benzothiazepine site. The series is described as follows: Rat cortex binding, benzothiazepine site ([3H]diltiazem). Conditions: [3H]diltiazem 15 nM. As for the experimental part: as §1
The subject of another series is VGCCs. Kind of series: Calcium fluorescent response to high [K+] in rat cortical cultures. Type of series: cell-based. The note with it: 100 mM K+, compound 3 µM, holding [K+] 20 mM.
Setting [2] is: PW library screen hit confirmation, 1.1 µM Bay K8644, holding [K+] 20 mM, read-out: FLIPR IC50 Rat cortical culture.
[3] abbreviates: Vhold/Vtest -50/-20 mV, 300 nM Bay K8644.
Setting [4] is: Vhold/Vtest -50/-20 mV, 300 nM Bay K8644, read-out: IC50, LTCC currents.
[5] abbreviates: 300 nM Bay K8644, holding [K+] 20 mM, read-out: IC50, inhibition of Bay K-induced responses (calcium flux).

Read-outs that look alike come from different tables or passages of the source. Where only a bound is given, the exact number is not on record here.

CaV1.2, sequence (Q13936 1-2138 isoform Q13936-12): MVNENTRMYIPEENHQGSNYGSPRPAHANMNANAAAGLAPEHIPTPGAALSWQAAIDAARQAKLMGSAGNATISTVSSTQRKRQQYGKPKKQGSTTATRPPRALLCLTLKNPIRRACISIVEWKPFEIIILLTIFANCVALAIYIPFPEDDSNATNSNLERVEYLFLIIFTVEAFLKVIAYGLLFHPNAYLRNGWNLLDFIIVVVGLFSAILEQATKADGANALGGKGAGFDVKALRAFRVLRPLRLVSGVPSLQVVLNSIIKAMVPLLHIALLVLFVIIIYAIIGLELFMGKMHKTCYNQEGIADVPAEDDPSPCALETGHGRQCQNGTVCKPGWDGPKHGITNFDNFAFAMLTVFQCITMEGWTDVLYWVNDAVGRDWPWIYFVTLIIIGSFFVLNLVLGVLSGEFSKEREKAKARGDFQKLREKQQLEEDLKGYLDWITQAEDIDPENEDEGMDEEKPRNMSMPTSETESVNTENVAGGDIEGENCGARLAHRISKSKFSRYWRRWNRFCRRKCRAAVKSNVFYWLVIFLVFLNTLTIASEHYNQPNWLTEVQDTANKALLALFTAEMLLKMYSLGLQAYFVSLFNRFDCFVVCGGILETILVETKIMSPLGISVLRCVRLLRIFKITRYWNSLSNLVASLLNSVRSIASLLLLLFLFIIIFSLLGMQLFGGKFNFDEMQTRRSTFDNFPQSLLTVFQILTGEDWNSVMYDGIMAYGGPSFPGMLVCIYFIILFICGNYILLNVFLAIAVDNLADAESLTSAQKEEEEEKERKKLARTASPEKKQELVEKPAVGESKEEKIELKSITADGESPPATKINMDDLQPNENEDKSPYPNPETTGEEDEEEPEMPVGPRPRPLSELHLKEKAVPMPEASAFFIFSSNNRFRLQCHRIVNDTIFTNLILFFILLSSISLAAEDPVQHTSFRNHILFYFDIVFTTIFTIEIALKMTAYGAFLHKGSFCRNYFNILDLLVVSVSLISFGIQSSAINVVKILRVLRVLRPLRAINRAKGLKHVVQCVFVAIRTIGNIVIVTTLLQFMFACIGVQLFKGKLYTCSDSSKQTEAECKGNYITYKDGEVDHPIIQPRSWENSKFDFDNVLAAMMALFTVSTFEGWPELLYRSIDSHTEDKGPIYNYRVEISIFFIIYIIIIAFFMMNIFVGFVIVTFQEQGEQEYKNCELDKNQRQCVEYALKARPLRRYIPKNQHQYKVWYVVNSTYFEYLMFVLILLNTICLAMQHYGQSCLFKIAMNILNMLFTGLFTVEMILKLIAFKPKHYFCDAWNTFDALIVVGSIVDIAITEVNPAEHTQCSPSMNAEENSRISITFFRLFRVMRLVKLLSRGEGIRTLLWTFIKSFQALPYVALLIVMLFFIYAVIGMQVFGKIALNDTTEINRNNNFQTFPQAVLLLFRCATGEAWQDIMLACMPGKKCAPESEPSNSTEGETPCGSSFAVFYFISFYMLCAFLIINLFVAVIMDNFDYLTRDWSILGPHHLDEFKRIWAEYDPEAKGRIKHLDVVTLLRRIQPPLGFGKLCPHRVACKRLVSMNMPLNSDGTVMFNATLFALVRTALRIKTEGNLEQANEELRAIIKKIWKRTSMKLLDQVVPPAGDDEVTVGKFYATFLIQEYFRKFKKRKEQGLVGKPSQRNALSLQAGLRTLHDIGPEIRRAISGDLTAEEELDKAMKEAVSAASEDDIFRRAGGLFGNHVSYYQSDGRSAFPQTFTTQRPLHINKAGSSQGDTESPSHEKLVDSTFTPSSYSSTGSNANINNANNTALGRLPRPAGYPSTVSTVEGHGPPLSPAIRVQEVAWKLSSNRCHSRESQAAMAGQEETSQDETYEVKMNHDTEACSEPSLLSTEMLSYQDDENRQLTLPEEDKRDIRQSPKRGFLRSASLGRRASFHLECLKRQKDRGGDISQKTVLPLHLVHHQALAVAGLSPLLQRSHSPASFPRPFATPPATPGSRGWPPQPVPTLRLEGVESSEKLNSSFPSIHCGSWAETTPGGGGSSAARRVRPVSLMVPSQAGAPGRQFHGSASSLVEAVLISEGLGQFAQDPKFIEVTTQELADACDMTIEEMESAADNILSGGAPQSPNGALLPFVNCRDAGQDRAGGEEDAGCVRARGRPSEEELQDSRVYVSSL

Turning to `COC(=O)C1=C(C)NC(C)=C([N+](=O)[O-])C1c1ccccc1C(F)(F)F` (centres unmarked) [Bay K8644], the EC50 is 40.6 nM in the series on LTCC currents (Vhold -50 mV, Vtest -20 mV, read-out: EC50, Bay K8644 concentration dependence (patch clamp)) and 204 nM in series [1] (holding [K+] 20 mM, read-out: EC50, activation of LTCCs (calcium flux)).
On to `COC(=O)C1=C(C)NC(C)=C(C(=O)OC2CCCN(Cc3ccccc3)C2)C1c1cccc([N+](=O)[O-])c1` (centres unmarked) [Benidipine], for which the half-inhibitory concentration (IC50) in series [1] (setting [2]) came out at 104 nM.
For the molecule `CN1CCC(=C2c3ccccc3C=Cc3ccccc32)CC1` [Cyproheptadine], the “% block of LTCC currents” value in the series with LTCC currents (3 µM compound, -50/-20 mV, 300 nM Bay K8644) worked out at 75.2 ± 9.1%. At CaV1.2, testing at 3 µM gave an inhibition of 52.3 ± 6.1%.
In the case of `COc1ccc(CCN(C)CCCC(C#N)(c2cc(OC)c(OC)c(OC)c2)C(C)C)cc1OC` (centres unmarked) [D600], at Phenylalkylamine site (n = 4, read-out: IC50 positive control, phenylalkylamine site binding), the IC50 amounted to 26.8 ± 3.6 nM.
With `CCOC(=O)C1=C(C)NC(C)=C(C(=O)OC)C1c1cccc(Cl)c1Cl` (centres unmarked) [Felodipine], the IC50 in series [1] (setting [2]) amounted to 57 nM.
The same measure, in the same setting: for `Fc1ccc(C(OCCN2CCN(CCCc3ccccc3)CC2)c2ccc(F)cc2)cc1` [GBR 12909] the value was 680 nM; for `COC(=O)C1=C(C)NC(C)=C(C(=O)OC(C)C)C1c1cccc2nonc12` (centres unmarked) [Isradipine], 8 nM; for `CCOC(=O)C1=C(C)NC(C)=C(C(=O)OCC)C1c1ccccc1/C=C/C(=O)OC(C)(C)C` [Lacidipine], 453 nM.
Regarding `COC(=O)C1=C(C)NC(C)=C(C(=O)OCCN(C)Cc2ccccc2)C1c1cccc([N+](=O)[O-])c1` (centres unmarked) [Nicardipine], the IC50 in series [1] (setting [2]) was 290 nM.
Regarding `O=C(Nc1ccc([N+](=O)[O-])cc1Cl)c1cc(Cl)ccc1O` [Niclosamide], the inhibition constant Ki at DHP site (rat cortical homogenates), at Benzothiazepine site (rat cortical homogenates) and on Phenylalkylamine site (rat cortical homogenates) was more than 30000 nM each time. The “max % inhibition of LTCC currents” value with LTCC currents (setting [3]) is given as “full efficacy”; in the series with LTCC currents (Vhold/Vtest -50/-20 mV, 300 nM Bay K8644, listed as niclosamide), 100%. For the same molecule, the IC50 in the series on LTCC currents (setting [4]) is 183 ± 28.2 nM; in series [1] (PW library screen hit confirmation, 1.1 µM Bay K8644, holding [K+] 20 mM, listed as niclosamide, read-out: FLIPR IC50 Rat cortical culture), 79.5 ± 12.8 nM; in series [1] (setting [2]), 80 nM. Besides, in the series with LTCC currents (at -20 mV, in presence of 200 nM compound), the “20–80% rise time” value was found to be 16.1 ± 3.5 ms. Also, the “Current remaining after 400 ms of depolarization, % of the peak” value in the series on LTCC currents (depolarization to -20 mV, 200 nM compound) is listed as 41.9 ± 7.5%. Besides, the “maximal % inhibition of LTCC-mediated calcium flux” value in series [1] (cortical cultures, n = 3) amounted to 100%. Further, at CaV1.2, the inhibition at 0.1 µM is 80.6 ± 4.9%.
Turning to `COC(=O)C1=C(C#N)NC(C)=C(C(=O)OC(C)C)C1c1cccc([N+](=O)[O-])c1` (centres unmarked) [Nilvadipine], in series [1] (setting [2]), the IC50 was found to be 28 nM.
For the molecule `COCCOC(=O)C1=C(C)NC(C)=C(C(=O)OC(C)C)C1c1cccc([N+](=O)[O-])c1` (centres unmarked) [Nimodipine], the “Decrease of potency of inhibition by Bay K” value with LTCC currents (IC50 with 300 nM Bay K vs without, -50/-20 mV) turned out to be 16.7 fold. Moreover, the “max % inhibition (fraction of sensitive current)” value in the series with LTCC currents (Vhold/Vtest -50/0 mV, control (no Bay K)) was found to be 85.4 ± 3.7%; in the series with LTCC currents (Vhold/Vtest -50/0 mV, control (no Bay K), listed as nimodipine), 85%; with LTCC currents (Vhold/Vtest -50/-20 mV, control (no Bay K)) it was 96.1 ± 0.8%; in the series with LTCC currents (Vhold/Vtest -50/-20 mV, control (no Bay K), listed as nimodipine), 96%; with LTCC currents (Vhold/Vtest -90/0 mV, control (no Bay K)), 75%. In addition, the 50% inhibitory concentration (IC50) in the series with LTCC currents (Vhold/Vtest -50/0 mV, control (no Bay K), read-out: IC50, patch clamp current) worked out at 28.3 ± 6.5 nM; with LTCC currents (Vhold/Vtest -50/-20 mV, 300 nM Bay K8644, listed as nimodipine, read-out: IC50, LTCC currents) it was 415 nM; with LTCC currents (setting [4]), 401 ± 21.8 nM; with LTCC currents (Vhold/Vtest -50/-20 mV, control (no Bay K), read-out: IC50, patch clamp current) it was 24.8 nM; in the series with LTCC currents (Vhold/Vtest -90/0 mV, control (no Bay K), read-out: IC50, patch clamp current), 4800 nM; in series [1] (setting [5]), 142 nM. In addition, the IC50 in series [1] (setting [2]) is 110 nM. In addition, the “max % inhibition of LTCC currents” value was 99.1 ± 1.1% with LTCC currents (setting [3]) and 99% with LTCC currents (Vhold/Vtest -50/-20 mV, 300 nM Bay K8644, listed as nimodipine). Besides, the “Block of Bay K8644-evoked calcium fluorescent response” value is “completely” in series [1] (1.1 µM Bay K8644, holding [K+] 20 mM) and “completely blocked” in series [1] (1.1 µM Bay K8644, holding [K+] 20 mM, listed as nimodipine). Also, the “Block of high [K+]-evoked calcium fluorescent response” value is listed as “partially” in the series with VGCCs and “partially blocked” in the series with VGCCs (listed as nimodipine).
As to `CCOC(=O)C1=C(C)NC(C)=C(C(=O)OC)C1c1cccc([N+](=O)[O-])c1` (centres unmarked) [Nitrendipine], the IC50 at DHP site (n = 4, read-out: IC50 positive control, DHP site binding) worked out at 0.19 ± 0.03 nM; in series [1] (setting [2]), 140 nM.
In the case of `COc1ccc([C@@H]2Sc3ccccc3N(CCN(C)C)C(=O)[C@@H]2OC(C)=O)cc1` [diltiazem], the IC50 amounted to 42.7 ± 6.8 nM at Benzothiazepine site (n = 4, read-out: IC50 positive control, benzothiazepine site binding) and 27100 nM in series [1] (setting [5]).
Consider `CC(NCCC(c1ccccc1)c1ccccc1)c1ccccc1` (centres unmarked) [fendiline], for which the IC50 in series [1] (setting [2]) was determined as 820 nM.
The same measure, in the same setting: as for `O=C1NCN(c2ccccc2)C12CCN(CCCC(c1ccc(F)cc1)c1ccc(F)cc1)CC2` [fluspirilene], the figure is 760 nM; as for `Cc1cccc(C)c1NC(=O)CN1CCN(CCCC(c2ccc(F)cc2)c2ccc(F)cc2)CC1` [lidoflazine], 710 nM.

In general, IC50 refers to the concentration that inhibits the measured activity by half. For orientation: inhibition means the drop in the measured response relative to a control, in per cent. High values mean a strong effect, low ones a weak effect. For orientation: Ki means the equilibrium dissociation constant of an inhibitor or competing ligand from its target. Low values mean higher affinity, high ones lower affinity.
